Columns and labels:
Assay type in all cases: cell-based
[1] = test system: E. faecalis; assay: Growth in liquid media in presence of test compound
Procedure: The strains were grown at 37° C. and after suitable cell concentrations had been reached, 100 μL of each cell suspension was added to a tube with growth media and test compound. Cultivation of the bacteria was then carried out in the presence of each test compound at 37° C. and the tubes examined for visible growth. The compounds were tested at concentrations of either 500 mg/l, 50 mg/l or 5 mg/l. This assay was repeated twice.
Some compounds were only tested against some test organisms. It will be appreciated that the charge of these molecules will depend on the environment, some of the Examples are shown with a suitable counter ion, some without.

[2] = test system: Pseudomonas aeruginosa (ATCC 27853); assay: as above
[3] = test system: Escherichia coli (ATCC 25922); assay: as above
[4] = test system: Staphylococcus aureus (ATCC 25923); assay: as above
[5] = test system: Mycobacterium tuberculosis (H37Rv); assay: as above
[6] = test system: Candida albicans (ATCC 90028); assay: as above
[7] = test system: Streptococcus pyogenes (ATCC 19615); assay: as above
[8] = test system: Candida albicans ATCC90028 (wild type); assay: Filter paper disc antifungal assay on agar plates; details: 5 mm disc, 37° C. 24 hours
Procedure: (§1) Compound 22 (the chloride salt) of table 1 was dissolved and the solution applied to a filter paper disc of diameter 5 mm. The filter paper discs were placed on plates containing the following strains of Candida albicans:
ATCC90028 (“wild type”, i.e. not resistant to nystatin or fluconazole)
(§2) The compound was applied at concentrations of 0.5, 1, 5, 10, 25 and 50 μg/ml. Nystatin and fluconazole at the same concentrations were applied in the same manner. […] All strains were tested at least three times.
(§3) Clearly, the higher the number, the greater the antifungal activity.

[9] = test system: Candida albicans ATCC38247 (resistant to fluconazole); assay: Filter paper disc antifungal assay on agar plates; details: 5 mm disc, 37° C. 24 hours
Procedure: as §1
ATCC38247 (resistant to fluconazole)
as §2, §3

[10] = test system: Candida albicans MYA576 (resistant to nystatin); assay: Filter paper disc antifungal assay on agar plates; details: 5 mm disc, 37° C. 24 hours
Procedure: as §1
MYA576 (resistant to nystatin).
as §2, §3

SMILES	Growth in the presence of test compound, P. aeruginosa ([2]; 5 mg/L)	Growth in the presence of test compound, P. aeruginosa ([2]; 50 mg/L)	Growth in the presence of test compound, P. aeruginosa ([2]; 500 mg/L)	Growth in the presence of test compound, E. coli ([3]; 5 mg/L)	Growth in the presence of test compound, E. coli ([3]; 50 mg/L)	Growth in the presence of test compound, E. coli ([3]; 500 mg/L)	Growth in the presence of test compound, S. aureus ([4]; 5 mg/L)	Growth in the presence of test compound, S. aureus ([4]; 50 mg/L)	Growth in the presence of test compound, S. aureus ([4]; 500 mg/L)	Growth in the presence of test compound, M. tuberculosis ([5]; 5 mg/L)	Growth in the presence of test compound, M. tuberculosis ([5]; 50 mg/L)	Growth in the presence of test compound, M. tuberculosis ([5]; 500 mg/L)	Growth in the presence of test compound, C. albicans ([6]; 5 mg/L)	Growth in the presence of test compound, C. albicans ([6]; 50 mg/L)	Growth in the presence of test compound, C. albicans ([6]; 500 mg/L)	Growth in the presence of test compound, S. pyogenes ([7]; 5 mg/L)	Growth in the presence of test compound, S. pyogenes ([7]; 50 mg/L)	Growth in the presence of test compound, S. pyogenes ([7]; 500 mg/L)	diameter of the area which did not show any Candida growth ([8]; ATCC90028, 0.5 μg/ml)	diameter of the area which did not show any Candida growth ([8]; ATCC90028, 1 μg/ml)	other results
CC1(C)C2CC3OB(CC(Cc4ccccc4)NC(=O)C(N)CCCCN)OC3(C)C1C2 (stereo not drawn) [Compound 1]	+	+	±	+	+	−	+	+	−	−	−	−									Growth in the presence of test compound, E. faecalis ([1]; 5 mg/L): +; Growth in the presence of test compound, E. faecalis ([1]; 50 mg/L): +; Growth in the presence of test compound, E. faecalis ([1]; 500 mg/L): −
CC1(C)C2CC3OB([C@@H](CNC(=O)[C@@H](N)Cc4ccccc4)Cc4ccc(OC(F)(F)F)cc4)O[C@]3(C)C1C2.Cl (stereo partly drawn) [Compound 55]	+	+	+	+	+	+	+	±	+	−	−	−	+	+	±	+	±	+			
C[C@H](N)C(=O)NC[C@@H](Cc1ccc(OC(F)(F)F)cc1)B1OC2CC3CC(C3(C)C)[C@@]2(C)O1.Cl (stereo partly drawn) [Compound 56]	+	+	+	+	+	+	+	±	+	+	−	−	+	±	±	+	−	+			
Cl.N[C@@H](Cc1ccccc1)C(=O)NC[C@@H](Cc1ccc(OC(F)(F)F)cc1)B(O)O [Compound 57]	+	+	−	+	+	±	+	+	+	+	−	−	+	+	−	+	+	−			
OC(Cn1cncn1)(Cn1cncn1)c1ccc(F)cc1F [Fluconazole, reference compound]																			7.33 millimeters	13.33 millimeters	diameter of the area which did not show any Candida growth ([8]; ATCC90028, 5 μg/ml): 21.33 millimeters; diameter of the area which did not show any Candida growth ([8]; ATCC90028, 10 μg/ml): 25.66 millimeters; diameter of the area which did not show any Candida growth ([8]; ATCC90028, 25 μg/ml): 30 millimeters; diameter of the area which did not show any Candida growth ([8]; ATCC90028, 50 μg/ml): 31.33 millimeters; diameter of the area which did not show any Candida growth ([9]; ATCC38247, 0.5 μg/ml): 5 millimeters; diameter of the area which did not show any Candida growth ([9]; ATCC38247, 1 μg/ml): 5 millimeters; diameter of the area which did not show any Candida growth ([9]; ATCC38247, 5 μg/ml): 5 millimeters; diameter of the area which did not show any Candida growth ([9]; ATCC38247, 10 μg/ml): 5 millimeters; diameter of the area which did not show any Candida growth ([9]; ATCC38247, 25 μg/ml): 5 millimeters; diameter of the area which did not show any Candida growth ([9]; ATCC38247, 50 μg/ml): 5 millimeters
C[C@@H]1[C@H](O)[C@@H](C)/C=C/C=C/CC/C=C/C=C/C=C/C=C/C(O[C@H]2O[C@H](C)[C@@H](O)[C@H](N)[C@@H]2O)CC2O[C@](O)(CC(O)C(O)CCC(O)CC(O)CC(O)CC(=O)O[C@H]1C)CC(O)C2C(=O)O (stereo partly drawn) [Nystatin, reference compound]																			6.25 millimeters	7.25 millimeters	diameter of the area which did not show any Candida growth ([10]; MYA576, 0.5 μg/ml): 5 millimeters; diameter of the area which did not show any Candida growth ([10]; MYA576, 1 μg/ml): 5 millimeters; diameter of the area which did not show any Candida growth ([10]; MYA576, 5 μg/ml): 5 millimeters; diameter of the area which did not show any Candida growth ([10]; MYA576, 10 μg/ml): 6.17 millimeters; diameter of the area which did not show any Candida growth ([10]; MYA576, 25 μg/ml): 7.33 millimeters; diameter of the area which did not show any Candida growth ([10]; MYA576, 50 μg/ml): 9 millimeters; diameter of the area which did not show any Candida growth ([8]; ATCC90028, 5 μg/ml): 9.25 millimeters; diameter of the area which did not show any Candida growth ([8]; ATCC90028, 10 μg/ml): 14.75 millimeters; diameter of the area which did not show any Candida growth ([8]; ATCC90028, 25 μg/ml): 19.25 millimeters; diameter of the area which did not show any Candida growth ([8]; ATCC90028, 50 μg/ml): 20.25 millimeters
